Test results published in the METLIN SMRT retention time set (Domingo-Almenara et al. 2019).

Assay: gradient 5% acetonitrile 3 min, to 50% in 2 min, to 85% in 15 min, held 3 min, 100 µL/min
Conditions: column: Zorbax Extend-C18 2.1 x 50 mm; eluents: water / acetonitrile, 0.1% formic acid
How it was run: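 Retention time was recorded from adduct peaks, which were picked computationally and each inspected manually. Pure standards ran in mixtures of ~100 molecules on HPLC coupled to a quadrupole time-of-flight mass spectrometer, in positive and negative ionization mode, through a Zorbax Extend-C18 column (2.1 × 50 mm, 1.8 μm) at 100 μL/min. Eluents were water and acetonitrile, each with 0.1% formic acid.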

SMILES	RP-LC retention time [s]
CN(C)CCCn1c(C2CC(=O)N(c3ccc(F)cc3)C2)nc2ccccc21 (stereo not given)	590
Cc1cccc(NC(=O)C2CCCN(c3ncnc4c3oc3ccccc34)C2)c1 (stereo not given)	845
CCCN1C(=O)COc2ccc(-c3noc(-c4n[nH]c5c4CCCC5)n3)cc21	1000
Cc1ccc(NC(=O)NC2CCN(c3ccccc3)C2=O)cc1Cl (stereo not given)	915
CC(=O)NC1(C(=O)O)CCCC1	617
COCc1nc(C2CCN(C(=O)NCC(C)C)C2)no1 (stereo not given)	636
COc1ccc(C2C(C(=O)N3CCCC(C)C3)CCC(=O)N2c2cc(OC)c(OC)c(OC)c2)cc1 (stereo not given)	772
CCCn1cc(C2=CCN(C(=O)NCc3ccc(OC)cc3)CC2)c2cccnc21	888
CCC(CC)N1CCN(S(=O)(=O)c2cc(-c3[nH]ncc3C(=O)N(C)C)oc2C)CC1	577
CCc1ccccc1NC(=O)N1CCc2nc(-c3ccc(Cl)cc3)ncc2C1	1160
COCCN1C(=O)[C@H]2CN(Cc3cc(OC)cc(OC)c3)C[C@H]2C1=O	598
Cc1ccsc1C(=O)N1CCC(N2C[C@H](O)C[C@H]2C(=O)NC2CCCCC2)CC1	631
CCn1cc(C)c(C(=O)O)c1CC(=O)N1CCCCCC1	720
COc1cccc(S(=O)(=O)N2CCC(c3noc(-c4cnccn4)n3)C2)c1 (stereo not given)	788
CC(C)CNC(=O)N1c2ccccc2CC1c1nc(C2CC2)no1 (stereo not given)	925
Cc1ccccc1-c1noc(Cn2c(=O)n(-c3cccc(F)c3)c(=O)c3sccc32)n1	1030
C=C(CN(C)C)C(=O)c1ccccc1Cl	594
Cc1cccc(NC(=O)CSc2nnc3c4cc(-c5ccc(C)c(C)c5)nn4ccn23)c1	989
COC(=O)c1cc(C)nc2c1c(=O)n(Cc1c(F)cccc1Cl)c(=O)n2C	965
CCOC(=O)c1c(S(=O)(=O)N2CCC(C(=O)Nc3cc(C)cc(C)c3)CC2)c(C)n(CC)c1C	980
COc1ccc(Cl)cc1NC(=O)C1CCN(C(=O)c2cccn2-c2cccnc2)CC1	784

SMILES	RP-LC retention time [s]
O=C(CN1CCN(Cc2ccc(F)cc2)C1=O)NCC1CCCCC1	854
COc1ccc(-c2noc(-c3nn(-c4ccc(F)c(F)c4)ccc3=O)n2)cc1OC	835
O=C(Nc1ccc(Br)cc1F)c1ccc(N2CCOCC2)nn1	899
COc1ccc(-c2nc3ncc4c(=O)n(CCc5c[nH]c6ccc(F)cc56)ccc4n3n2)cc1	935
CCC(CC)C(=O)Nc1nc(-c2ccc3c(c2)NC(=O)C(C)O3)c(C)s1 (stereo not given)	922
COCCC1CCN(C(=O)C2CCN(C(C)=O)CC2)CC1	606
CCN1C(=O)COc2ccc(-c3csc(NC(=O)C(C)C)n3)cc21	830
O=C(NCCn1c(=O)n(Cc2ccccc2)c2cccnc21)c1nccc2ccccc12	836
Cc1ccc(S(=O)(=O)N2c3ccccc3NC3=C(C(=O)CCC3)C2c2ccco2)cc1C (stereo not given)	860
O=C(Cn1nc2n(c1=O)CCCCC2)Nc1ccc(F)c(Cl)c1	729
CS(=O)(=O)N1CCOc2ccc(CCC(N)=O)cc2C1	628
CCc1cccc(C)c1NC(=O)C1CCCN(c2nnc(C)c3c(C)n(-c4ccccc4)nc23)C1 (stereo not given)	775
Cc1ccc(Nc2nc(C)cc(N3CCN(S(=O)(=O)c4cccc(C(F)(F)F)c4)CC3)n2)cc1	886
O=C(c1ccco1)N1CCCC1c1nc(C2CCOCC2)no1 (stereo not given)	673
COc1ccc(N2CCN(c3ncc(S(=O)(=O)c4ccc(C)cc4)c(N)n3)CC2)cc1	919
Cc1c(C(=O)C(=O)Nc2ccccc2C(N)=O)c2ccccc2n1C	796
O=c1c2sccc2n(Cc2nc(-c3ccccc3)no2)c(=O)n1-c1cccc(F)c1	959
O=C(c1ccncc1)N1CC(N(Cc2ccncc2)CC2CC2)C1	519
CCOC(=O)CNC(=O)Nc1ccccc1-c1cc2ccccc2[nH]1	866
COCc1nncn1C1CCN(S(=O)(=O)c2cc(F)ccc2OC)CC1	679
Cc1c2cnn(CC(=O)NCc3ccco3)c(=O)c2c(C)n1Cc1cccc(Cl)c1	862

Second part, the molecule after the results:

RP-LC retention time [s]	SMILES
602	O=C(Cn1ncn2nc(-c3ccccc3)cc2c1=O)NCCCN1CCCC1
907	CCOC(=O)c1c2c3c(cccc3n(C)c1=O)C(=O)c1ccccc1-2
1040	COc1cccc(-c2nc(-c3ccc(NS(=O)(=O)c4cccs4)cc3)no2)c1OC
779	CCCn1cc(CCNS(=O)(=O)c2c(C)noc2C)c2cccnc21
992	O=C(Nc1ccc(N2CCOCC2)cc1)C1=Cc2cc(Cl)ccc2OC=C1
642	COc1ccc(Cl)cc1NC(=O)Cn1ncc2c(N3CCN(c4ccccn4)CC3)ncnc21
592	CCOCCCNC(=O)C1Cn2cccc2C(=O)N1 (stereo not given)
890	Cc1ccc(-n2c(N3CCC(C(=O)NCCC(C)C)CC3)nc3ccsc3c2=O)cc1
882	O=C(c1cn(-c2cccc(Cl)c2)nn1)N1CCN(c2ccccc2F)CC1
555	c1cncc(-c2n[nH]c(C3CCCCN3)n2)c1 (stereo not given)
936	CCc1nn2c(CNC(=O)c3cccc(C)c3)c(-c3ccccc3)nc2s1
1050	O=C1CC(c2noc(CCc3ccccc3)n2)CN1c1ccc(F)c(Cl)c1 (stereo not given)
665	Cc1noc(-c2ccc(NC(=O)CSc3nnnn3C)cc2)n1
1050	CCc1cc(-c2csc(S(=O)(=O)NCCc3ccc(Cl)cc3)c2)on1
1210	CCN(C(=O)c1ccccc1OC)c1nc(-c2ccccc2)cs1
711	COc1cc(-c2nc3ncccn3c2Nc2ccc(C(C)C)cc2)ccc1O
768	Cc1cc(F)ccc1NC(=O)c1csc(-c2ccc(N3CCCC3)nc2)n1
824	COc1cc(C(=O)Nc2nc(-c3ccc4c(c3)NC(=O)CO4)cs2)cc(OC)c1OC
631	O=C(N1CCC(c2nnc(-c3ccc(F)cc3)o2)CC1)C1(c2ccccc2)CCOCC1
605	CCN1C(=O)NC(c2ccccc2C(F)(F)F)C2=C1CN(CCC(=O)NC1CC1)C2=O (stereo not given)
618	COc1ccc(OC)c(CNC(=O)C2(CCO)CCN(c3ncccn3)C2)c1 (stereo not given)
691	Cc1ccn2cc(-c3ccc(NS(=O)(=O)c4cc(Cl)ccc4Cl)cc3)nc2n1
876	O=[N+]([O-])c1ccc2[nH]c3nc4ccccc4nc3c2c1
913	COc1ccc(-c2nnc(-c3ccc(Cl)c(S(=O)(=O)N(C)C)c3)o2)cc1

RP-LC retention time [s]	SMILES
640	O=C(Nc1ccc(Cl)cc1)c1cn2c(n1)CCCC2
1030	CCOc1ccc(CNC(=O)C2CCCN(c3nccnc3Sc3ccccc3)C2)cc1OCC (stereo not given)
799	Cc1oc(-c2ccc(NC(=O)C3CCC3)cc2)nc1Cn1cccn1
879	CCC(C)NC(=O)Cn1c(=O)c(S(=O)(=O)c2ccccc2)cc2cc(C)ccc21 (stereo not given)
903	Cc1nnsc1C(=O)N1CCN(c2nc3ccc(OC(F)(F)F)cc3s2)CC1
1030	CCc1noc(C2(NC(=O)c3cccc(Cl)c3)CCCCC2)n1
1160	CC(C)c1csc(-c2csc(S(=O)(=O)NCc3ccc(Cl)cc3)c2)n1
655	COCCNC(=O)Cn1c(=O)c2cccn2c2ccccc21
846	Cc1nsc2ncc(C(=O)N3CCOCC3)c(N3CCC(C(=O)Nc4ccc(Cl)cc4)CC3)c12
1070	Cc1ccc(-c2nc3cnccn3c2Nc2ccc(C)cc2C)cc1
629	Cc1ccc(CN(C)Cc2cc(=O)n3cc(Cl)ccc3n2)cc1
691	COc1ccc(NC(=O)c2ccc(N3C(=O)CCC3=O)cc2)c2ccccc12
919	CCc1noc(NC(C)=O)c1-c1ccc(C)c(S(=O)(=O)Nc2ccc(C)cc2Br)c1
711	COCCCNC(=O)c1ccc(-n2nc(C)c3c2CC(C)(C)CC3=O)cc1
1000	O=C(Nc1cnc(-c2ccc(F)cc2)nc1)c1ccc(F)cc1
911	CCOC(=O)CNC(=O)N1CCCCCC1c1ccccc1Cl (stereo not given)
1020	Cc1noc(C)c1-c1ccc(S(=O)(=O)N2CCCCCC2)cc1
606	O=C(NCc1cccc(F)c1)N1CCC(Nc2cccnc2)C1 (stereo not given)
681	COc1ccc(-c2ccc(=O)n(CCNC(=O)NC3CCCCC3)n2)cc1
708	Cc1ccc(CNC(=O)Cn2cnc3nc(N4CCC(C(=O)NC5CC5)CC4)sc3c2=O)cc1
726	CCCN(C)c1nccn2c(=O)n(CC(=O)Nc3ccc(C)c(F)c3)nc12
967	O=C(Cn1cnc2c(-c3ccc(F)cc3)csc2c1=O)Nc1cc(F)ccc1F
695	Cc1cccc(CNC(=O)C2CCN(S(=O)(=O)c3c(C)[nH]c(C)c3C(=O)N3CCCC3)CC2)c1
765	NC(=O)C1CCN(c2cc(-c3nc(-c4ccccc4)no3)c3ccccc3n2)CC1
